Results published in publication PMC4116331 (Journal of molecular biology, 2014).
Like-named read-outs stand apart in the source and are kept apart here.

Legend:
[1] = molecular target: RT DNA polymerase activity (Human immunodeficiency virus type 1 group M subtype B, UniProt P04585); test: RT RNA-dependent DNA polymerase activity; type: biochemical, HIV-1
RT-RNase H [2] = test: RT-RNase H inhibition of other RNHIs; type: biochemical, HIV-1
RT-RNase H [3] = conditions: read-out: IC50, RT-RNase H, cited from earlier work
[4] = read-out: In vitro IC50 RT DNA pol, pH 7.4, 1 mM Mg2+

For `O=C(O)Cc1cc(=O)oc2c(O)c(O)ccc12` [Compound F3284-8495, (7,8-dihydroxy-2-oxo-2H-chromen-4-yl)acetic acid], the IC50 [1] was greater than 10000 nM and the “Inhibition of RT DNA polymerase activity” value ([1]; at 10 µM, the highest concentration tested) was “no detectable inhibition”.
`O=c1cc(CN2CCN(C(c3ccccc3)c3ccccc3)CC2)c2ccc(O)c(O)c2o1` [Compound F3385-2581] gave an IC50 [1, 4] of 2200 nM.
In the case of `COc1ccc(N2CCN(Cc3cc(=O)oc4c(O)c(O)ccc34)CC2)cc1.Cl.Cl` [Compound F3385-2588], the “Inhibition of the DNA polymerase activity of RT (in words)” value [1] is reported as “did not inhibit” and the IC50 [1, 4] is reported as greater than 10000 nM.
Compound `O=c1cc(CN2CCN(c3cccc(Cl)c3)CC2)c2ccc(O)c(O)c2o1` [Compound F3385-2590] has an IC50 [1, 4] of 2500 nM.
For `CC(C)c1ccc(O)c(=O)c(O)c1` [β-Thujaplicinol, β-thujaplicinol], the “Fold greater activity than F3284-8495 against the RNase H of full-length RT” value (RT-RNase H [2]) is listed as “greater than 20 fold” and the IC50 (RT-RNase H [3]; 31) is listed as 210 nM.
In the case of manicol, the IC50 (RT-RNase H [3]) is listed as 600 nM.
